Patent publication US4560687A, “Substituted aromatic compounds” (priority 1979, dated 1985)
Read-outs that look alike come from different tables or passages of the source.

How the values were obtained:
[1] = test system: Plasmadium berghei; settings: Plasmadium berghei in mice; Rees et al, 1972; cited from earlier work
[2] = cited from earlier work; for toxicity: at curative doses
[3] = standard maximal electroshock test (anticonvulsant activity); format: in vivo; settings: Mus musculus, po, mice
Description: The anticonvulsant activity of the compounds of the present invention was determined by a standard maximal electroshock test, that described by L. A. Woodbury and V. D. Davenport, Arch. Int. Pharmacodyn., 1952, 92, 97.

[4] = anti-malarial agents tested as anticonvulsants; Rosenburg and Bottiroli, 1964; cited from earlier work

| Structure (SMILES) | activity against malaria [1] | toxicity ([2]; Rees et al, 1972) | ED50 [3] | further results |
| --- | --- | --- | --- | --- |
| Nc1nnc(-c2ccc(Cl)cc2Cl)c(N)n1 [2,4-dichlorophenyl] | only slight antimalarial activity | – | – | – |
| Nc1nnc(-c2ccc(Cl)c(Cl)c2)c(N)n1 [3,4-dichlorophenyl] | active against the malaria organism | toxic at curative doses | – | therapeutic ratio ([2]; mouse, in vivo): low therapeutic ratio |
| Nc1nnc(-c2cc3ccccc3cc2Cl)c(N)n1 [3,5-diamino-6-(3-chloro-2-naphthyl)-1,2,4-triazine] | – | – | 12 mg/kg | – |
| Cc1cc(Cl)ccc1-c1nnc(N)nc1N [3,5-diamino-6-(4-chloro-2-methylphenyl)-1,2,4-triazine] | – | – | 14.8 mg/kg | – |
| Nc1nnc(-c2ccc(Cl)c(C(F)(F)F)c2)c(N)n1 [3,5-diamino-6-(4-chloro-3-trifluoromethylphenyl)-1,2,4-triazine] | – | – | 18.5 mg/kg | – |
| Nc1nnc(-c2ccc(Cl)cc2)c(N)n1 [4-chlorophenyl] | active against the malaria organism | toxic at curative doses | – | therapeutic ratio ([2]; malaria context, Rees et al, 1972): low therapeutic ratio |
| Nc1nnc(-c2ccc(C(F)(F)F)cc2)c(N)n1 [4-trifluoromethylphenyl] | still being active against malaria | less toxic than the chlorophenyl compounds | – | – |
| CCN(CCO)CCCC(C)Nc1ccnc2cc(Cl)ccc12 (stereo not shown) [hydroxychloroquine] | – | – | – | anticonvulsant activity profile [4]: favourable activity profile |
